In patent publication US7750148B2, “Intermediate compound for the production of β-lactamase-resistant cephalosporin ester compounds and salts thereof” (Zhejiang Yongning Pharmaceutical Factory, priority 2003, dated 2010):
Read-outs that look alike come from different tables or passages of the source.

How the values were obtained:
[1] = system: Bacillus pneumoniae 46101; assay: In vitro antibacterial activity (MIC, agar double dilution); format: cell-based; conditions: read-out: MIC of the drug to bacteria
From the text: (§1) tested samples YR-1, YR-2 were the ones prepared in example 1 and example 5 respectively, control samples were cefetamet sodium (CTM), cefuroxime sodium (CRX), cefetamet sodium+sulbactam sodium (CTM+SBT) (molar ratio 1:1), cefuroxime+sulbactam sodium (CRX+SBT) (molar ratio 1:1). All control samples (have been sold on the market) were supplied by Zhejiang Yongning pharmaceutical factory.
(§2) Staphylococcus aureus 26003, Diplococcus lanceolatus 31002, E. coli 44102, Shigella sonnet 51081, Shigella bogdii 51313, Shigella flexneri 51573, Proteus mirabilis 49005, Bacillus proteus 49085, Proteus morganii 49086, Pseudomonas aeruginosa 10124, Bacillus pneumoniae 46101, Salmonella enteritidis 50041, Salmonella typhi 50097, Citrobacter 48017, Candida ciferii 41002 were supplied by Shanghai Hygienic and Antiepidemic Station.
(§3) Mueller-Hinton Agar (M.H) culture medium, batch number 20040528 (Shanghai Reagent Supply Research Center, China Diarrhea Disease Control).
(§4) Adopted agar double dilution, inoculated using multipoint inoculator, inoculated 10^5CFU/ML each point, cultured for 24 hours at 37° C., observed and recorded the results, set the least concentration of the antibacterial drug that can inhibit bacteria growth as the minimum inhibitory concentration (MIC).

Bacillus proteus 49085 = assay: as above; format: cell-based; conditions: read-out: MIC of the drug to bacteria
From the text: as §1, §2, §3, §4

Candida ciferii 41002 = assay: as above; format: cell-based; conditions: read-out: MIC of the drug to bacteria
From the text: as §1, §2, §3, §4

Citrobacter 48017 = assay: as above; format: cell-based; conditions: Citrobacter, 48017, 24 h, read-out: MIC of the drug to bacteria
From the text: as §1, §2, §3, §4

[2] = system: Diplococcus lanceolatus 31002; assay: as above; format: cell-based; conditions: read-out: MIC of the drug to bacteria
From the text: as §1, §2, §3, §4

E. coli 44102 = assay: as above; format: cell-based; conditions: read-out: MIC of the drug to bacteria
From the text: as §1, §2, §3, §4

Proteus mirabilis 49005 = assay: as above; format: cell-based; conditions: Proteus mirabilis, 49005, 24 h, read-out: MIC of the drug to bacteria
From the text: as §1, §2, §3, §4

[3] = system: Pseudomonas aeruginosa 10124; assay: as above; format: cell-based; conditions: read-out: MIC of the drug to bacteria
From the text: as §1, §2, §3, §4

[4] = system: Salmonella enteritidis 50041; assay: as above; format: cell-based; conditions: Salmonella enterica, read-out: MIC of the drug to bacteria
From the text: as §1, §2, §3, §4

Salmonella typhi 50097 = assay: as above; format: cell-based; conditions: Salmonella enterica, 10^5CFU/ML each point, 24 hours at 37° C., read-out: MIC of the drug to bacteria
From the text: as §1, §2, §3, §4

Shigella bogdii 51313 = assay: as above; format: cell-based; conditions: Shigella, 51313, 24 h, read-out: MIC of the drug to bacteria
From the text: as §1, §2, §3, §4

Shigella flexneri 51573 = assay: as above; format: cell-based; conditions: Shigella flexneri, 51573, 24 h, read-out: MIC of the drug to bacteria
From the text: as §1, §2, §3, §4

Shigella sonnet 51081 = assay: as above; format: cell-based; conditions: Shigella, 51081, 24 h, read-out: MIC of the drug to bacteria
From the text: as §1, §2, §3, §4

[5] = system: Staphylococcus aureus 26003; assay: as above; format: cell-based; conditions: Staphylococcus aureus, 26003, 24 h, read-out: MIC of the drug to bacteria
From the text: as §1, §2, §3, §4

Proteus morganii 49086 = assay: as above; format: cell-based
From the text: as §1, §2, §3, §4

Bacillus aerogenes 45102 = assay: as above; format: cell-based; conditions: Bacillus, 45102, 24 h, read-out: MIC of the drug to bacteria
From the text: as §1
(§5) Staphylococcus epidermidis 26069 and Bacillus aerogenes 45102 were supplied by Beijing Drug & Biology Product Appraisal Bureau.
as §3, §4

[6] = system: Staphylococcus epidermidis 26069; assay: as above; format: cell-based; conditions: read-out: MIC of the drug to bacteria
From the text: as §1, §5, §3, §4

[7] = system: Diplococcus lanceolatus 0031; assay: as above; format: cell-based; conditions: read-out: MIC of the drug to bacteria
From the text: as §1
Diplococcus lanceolatus 0031 was supplied by Shanghai First People's Hospital.
as §3, §4

[8] = system: Bacillus proteus 49085, Proteus morganii 49086; assay: Ex vivo antibacterial activity experiment after mouse is administered, conclusions (strains not separated); format: in vivo; conditions: mice, intravenous injection 500 mg/kg
From the text: the sources of tested samples (YR-1, YR-2) and control samples (CTM, CRX, CTM+SBT 1:1 and CRX+SBT 1:1) are the same as above. Bacillus proteus 49085, Proteus morganii 49086, inoculated 10^5CFU/ML each dish. Mueller-Hinton Agar (M.H) culture medium, batch number 000707 (Shanghai Reagent Supply Research Center, China Diarrhea Disease Control). Strain: Kunming mice; source: Animal Facility of Shanghai Institute of Pharmaceutical Industry; certificate number: Hudonghezhengzi No. 107; animal numbers: 120; Sex: same number of male and female mice; Body weight: 18-21 g; fast time: 16 hours. Group 1: CTM, CRX, CTM+SBT 1:1, CRX+SBT 1:1 were given at a dosage of 500 mg/kg intravenously, collecting blood at 10 minutes, 30 minutes, 1 hour, 2 hours, 4 hours, 8 hours after administration. Group 2: […] Kunming mice were randomly divided into several groups according to body weight of empty stomach and sex. Collecting blood of three mice at different time point, anticoagulated with heparin, centrifugated and separated plasma, quantitative spotting, semi-quantitated antibacterial activity according to the size of bacterial inhibition ring.

[9] = system: type II, III, IV, V β-lactamase; conditions: at a concentration of 2 μg/ml; cited from earlier work

Question: What does the source list for `CO/N=C(\C(=O)N[C@@H]1C(=O)N2C(C(=O)O)=C(COC(N)=O)CS[C@H]12)c1ccco1` [CRX, cefuroxime sodium, reference compound]?
Answer: MIC ([1]; Klebsiella pneumoniae, Bacillus pneumoniae 46101, 10^5CFU/ML each point, 24 hours at 37° C.): 25 µg/mL; MIC (Bacillus proteus 49085; Bacillus proteus 49085, 10^5CFU/ML each point, 24 hours at 37° C.): 0.78 µg/mL; MIC (Candida ciferii 41002; Candida ciferii 41002, 10^5CFU/ML each point, 24 hours at 37° C.): 25 µg/mL; MIC (Citrobacter 48017): 1.56 µg/mL; MIC ([2]; Diplococcus lanceolatus 31002, 10^5CFU/ML each point, 24 hours at 37° C.): 25 µg/mL; MIC (E. coli 44102; Escherichia coli, E. coli 44102, 10^5CFU/ML each point, 24 hours at 37° C.): 6.25 µg/mL; MIC (Proteus mirabilis 49005): 1.56 µg/mL; MIC ([3]; Pseudomonas aeruginosa 10124, 10^5CFU/ML each point, 24 hours at 37° C.): 100 µg/mL; MIC ([4]; Salmonella enteritidis 50041, 10^5CFU/ML each point, 24 hours at 37° C.): 6.25 µg/mL; MIC (Salmonella typhi 50097): 3.13 µg/mL; MIC (Shigella bogdii 51313): 1.56 µg/mL; MIC (Shigella flexneri 51573): 1.56 µg/mL; MIC (Shigella sonnet 51081): 0.78 µg/mL; MIC [5]: 1.56 µg/mL; MIC (Proteus morganii 49086; Morganella morganii, Proteus morganii 49086, 10^5CFU/ML each point, 24 hours at 37° C., read-out: MIC of the drug to bacteria): 100 µg/mL; MIC (Bacillus aerogenes 45102): 3.13 µg/mL; MIC ([6]; Staphylococcus epidermidis 26069, 10^5CFU/ML each point, 24 hours at 37° C.): 0.39 µg/mL; MIC ([7]; Diplococcus lanceolatus 0031, 10^5CFU/ML each point, 24 hours at 37° C.): 0.78 µg/mL; antibacterial activities in blood 8 hours after administration [8]: can not be detected

Question: Which results are given for `CO/N=C(\C(=O)N[C@@H]1C(=O)N2C(C(=O)O)=C(C)CS[C@H]12)c1csc(N)n1` [CTM, cefetamet sodium, reference compound]?
Answer: MIC ([1]; Klebsiella pneumoniae, 46101, 24 h): 0.78 µg/mL; MIC (Bacillus proteus 49085; Bacillus, 49085, 24 h): 0.195 µg/mL; MIC (Candida ciferii 41002; Candida, 41002, 24 h): 0.78 µg/mL; MIC (Citrobacter 48017): 1.56 µg/mL; MIC ([2]; 24 h): > 100 µg/mL; MIC (E. coli 44102; Escherichia coli, 44102, 24 h): 0.78 µg/mL; MIC (Proteus mirabilis 49005): 0.195 µg/mL; MIC ([3]; Pseudomonas aeruginosa, 10124, 24 h): 100 µg/mL; MIC ([4]; ENTERITIDIS, 24 h): 0.78 µg/mL; MIC (Salmonella typhi 50097): 0.78 µg/mL; MIC (Shigella bogdii 51313): 0.39 µg/mL; MIC (Shigella flexneri 51573): 0.78 µg/mL; MIC (Shigella sonnet 51081): 0.39 µg/mL; MIC [5]: 100 µg/mL; MIC (Proteus morganii 49086; Morganella morganii, 49086, 24 h, read-out: MIC of the drug to bacteria): > 100 µg/mL; MIC (Proteus morganii 49086; Morganella morganii, 49086, read-out: MIC (as restated in the conclusions)): > 100000 µg/mL; MIC (Bacillus aerogenes 45102): 0.195 µg/mL; MIC ([6]; Staphylococcus epidermidis, 26069, 24 h): 12.5 µg/mL; MIC ([7]; 24 h): 25 µg/mL; antibacterial activities in blood 8 hours after administration [8]: can not be detected

Question: With `CC1(C)[C@H](C(=O)O)N2C(=O)C[C@H]2S1(=O)=O` [Sulbactam] as the compound, how does the “inhibition to β-lactamase” value [9] read?
Answer: Its value is “extremely strong inhibition”.
